Source: patent publication US11351173B2, “Substituted pyrrolo[1,2-a]pyrimidines and their use in the treatment of medical disorders” (Bial—R&D Investments, S.A., priority 2014, dated 2022)
Converted amounts (≈) assume the structure as drawn.

Legend:
[1] = biological target: T1, glucocerebrosidase (Gcase) (Homo sapiens, UniProt P04062); experiment: Glucocerebrosidase (Gcase) activation assay, 4-methylumbelliferyl-beta-D-glucopyranoside substrate, fluorescence readout; assay type: biochemical; settings: for activation at 0.1 µM / Percent Gcase Activation, 0.1 μM Test Compound: test compound at 0.1 μM; for activation at 0.1 µM: read-out: Percent Gcase Activation, 0.1 μM Test Compound; for Percent Gcase Activation, 1 μM Test Compound / activation at 1 µM: test compound at 1.0 μM; for activation at 1 µM: read-out: Percent Gcase Activation, 1 μM Test Compound
T1 construct: micellar solution containing 10 nM GCase and 100 nM saposin C
T1 sequence (P04062 40-536): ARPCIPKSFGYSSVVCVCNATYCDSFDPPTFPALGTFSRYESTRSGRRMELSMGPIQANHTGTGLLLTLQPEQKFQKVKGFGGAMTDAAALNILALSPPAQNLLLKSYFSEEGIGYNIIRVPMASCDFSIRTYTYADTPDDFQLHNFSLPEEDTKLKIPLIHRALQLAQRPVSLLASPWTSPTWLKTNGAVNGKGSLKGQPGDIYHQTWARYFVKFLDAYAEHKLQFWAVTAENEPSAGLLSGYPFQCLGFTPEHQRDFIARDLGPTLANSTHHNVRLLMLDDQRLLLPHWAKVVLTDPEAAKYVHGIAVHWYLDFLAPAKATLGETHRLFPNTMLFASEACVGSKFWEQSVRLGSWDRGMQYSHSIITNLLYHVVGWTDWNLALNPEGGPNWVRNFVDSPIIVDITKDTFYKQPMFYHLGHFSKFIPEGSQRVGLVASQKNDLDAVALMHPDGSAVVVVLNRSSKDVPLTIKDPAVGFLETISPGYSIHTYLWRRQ
In short: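 Test compounds are first screened at 1.0 and 0.1 μM final, then titrated in 8 points (3-fold from 5 μM) against human GCase with saposin C in phosphatidylserine/triton X-100 micelles at pH 4.7. Reactions run 15 min at room temperature, with fluorescence read at 365/440 nm.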

[2] = Compound solubility in water; settings: water; for solubility: Compound Solubility in Water

| Structure (SMILES) | activation at 0.1 µM [1] | Percent Gcase Activation, 1 μM Test Compound [1] | solubility [2] | activation at 1 µM [1] | solubility ([2]; in water) | Percent Gcase Activation, 0.1 μM Test Compound [1] | Compound Solubility in Water [2] |
| --- | --- | --- | --- | --- | --- | --- | --- |
| Cc1cc(C)n2ccc(C(=O)NC3CCC4(CCCCO4)C3)c2n1 (stereo not shown) [III-82] | 10 to 20% | +++ (Gcase activation greater than 60%) | 27.3 µg/mL (≈ 83.4 µM) |  |  |  |  |
| Cc1ccnc2c(C(=O)Nc3ccc(-c4ncco4)cc3)ccn12 [III-256] | < 10% |  |  | > 60% | 4 µg/mL (≈ 12.6 µM) |  |  |
| Cc1cc(C)n2ccc(C(=O)NC3CCc4ccc(-c5cocn5)cc43)c2n1 (stereo not shown) [III-130] |  |  | 0.5 µg/mL (≈ 1.34 µM) | > 60% |  |  |  |
| CCCCO[C@H]1CC[C@H](NC(=O)c2ccn3c(C)cc(COC)nc23)CC1 [III-45] | 10 to 20% |  | 13.6 µg/mL (≈ 36.4 µM) | > 60% |  |  |  |
| [2H]C1(NC(=O)c2ccn3c(C)cc(NC(C)=O)nc23)CCOc2ccccc21 (stereo not shown) [III-163] | < 10% |  | 2.5 µg/mL (≈ 6.84 µM) | < 30% |  |  |  |
| CCCCO[C@H]1CC[C@H](NC(=O)c2ccn3c(C)cc(Cl)nc23)CC1 [III-65] | > 20% |  | 8.2 µg/mL (≈ 22.5 µM) | > 60% |  |  |  |
| CNc1cc(C)n2ccc(C(=O)NC3c4ccccc4C4CC3C4)c2n1 (stereo not shown) [III-70] | > 20% |  | 0.3 µg/mL (≈ 0.866 µM) | > 60% |  |  |  |
| CO[C@H]1CC[C@H](C(C)(C)NC(=O)c2ccn3c(C)cc(C)nc23)CC1 [III-236] | 10 to 20% |  |  | > 60% | 9.9 µg/mL (≈ 28.8 µM) |  |  |
| CCCCO[C@H]1CC[C@H](NC(=O)c2ccn3c(C)cc(C)nc23)CC1 [III-26] | > 20% |  | 18.1 µg/mL (≈ 52.7 µM) | > 60% |  |  |  |
| COCCOCCO[C@H]1CC[C@H](NC(=O)c2ccn3c(C)cc(C)nc23)CC1 [III-105] | < 10% |  | 47.3 µg/mL (≈ 121 µM) | < 30% |  |  |  |
| Cc1cc(C)n2ccc(C(=O)NC3CCC(C(=O)N(C)C4CC4)CC3)c2n1 (stereo not shown) [III-134] | < 10% |  | 38.5 µg/mL (≈ 104 µM) | < 30% |  |  |  |
| Cc1cc(C)n2ccc(C(=O)NC3COCc4ccccc43)c2n1 (stereo not shown) [III-210] | 10 to 20% |  |  | > 60% | 3.3 µg/mL (≈ 10.3 µM) |  |  |
| Cc1cc(Cl)nc2c(C(=O)N[C@H]3CC[C@H](OCC(C)C)CC3)ccn12 [III-73] | > 20% |  | 2 µg/mL (≈ 5.5 µM) | > 60% |  |  |  |
| Cc1cc(C)n2ccc(C(=O)NC3CC=C(CCCO)c4ccccc43)c2n1 (stereo not shown) [III-144] | 10 to 20% |  | 0.8 µg/mL (≈ 2.13 µM) | > 60% |  |  |  |
| O=C(Nc1ccc(-c2cocn2)cc1)c1ccn2c(C(F)F)cc(C(F)F)nc12 [III-23] | > 20% |  | 0.06 µg/mL (≈ 0.148 µM) | > 60% |  |  |  |
| CCC(F)(F)CN1CCC(NC(=O)c2ccn3c(C)cc(C)nc23)C1 (stereo not shown) [III-205] | < 10% |  |  | < 30% | 21.3 µg/mL (≈ 60.8 µM) |  |  |
| Cc1cc(C)n2ccc(C(=O)Nc3ccc(-c4ccncc4)cc3)c2n1 [III-277] |  |  |  |  | 0.01 µg/mL (≈ 0.0292 µM) | * (less than 10% Gcase activation) |  |
| COC1CCCCC1NC(=O)c1ccn2c(C)cc(C)nc12 (stereo not shown) [III-98] | < 10% |  | 29.9 µg/mL (≈ 99.2 µM) | < 30% |  |  |  |
| Cc1cc(C)n2ccc(C(=O)NC3CCC(c4cccs4)CC3)c2n1 (stereo not shown) [III-187] | > 20% |  |  | > 60% |  |  | 0.4 µg/mL |
| Cc1cc(C)n2ccc(C(=O)NC3CCOc4ccccc43)c2n1 (stereo not shown) [III-211] | 10 to 20% |  |  | > 60% | 3.8 µg/mL (≈ 11.8 µM) |  |  |
| Cc1cc(C)n2ccc(C(=O)NC(C)(C)c3ccccc3)c2n1 [III-91] | > 20% |  | 3 µg/mL (≈ 9.76 µM) | > 60% |  |  |  |

| Structure (SMILES) | activation at 0.1 µM [1] | Percent Gcase Activation, 1 μM Test Compound [1] | solubility [2] | activation at 1 µM [1] | solubility ([2]; in water) | Percent Gcase Activation, 0.1 μM Test Compound [1] | Compound Solubility in Water [2] |
| --- | --- | --- | --- | --- | --- | --- | --- |
| CCCO[C@H]1CC[C@H](CNC(=O)c2ccn3c(C)cc(C)nc23)CC1 [III-240] | 10 to 20% |  |  | > 60% | 21.4 µg/mL (≈ 62.3 µM) |  |  |
| CCCCCOC1CCC(NC(=O)c2ccn3c(C)cc(C)nc23)C1 (stereo not shown) [III-177] |  | +++ (Gcase activation greater than 60%) |  |  |  | *** (greater than 20% Gcase activation) | 17.2 µg/mL |
| Cc1cc(C)n2ccc(C(=O)NC3CCOc4ccc(F)c(F)c43)c2n1 (stereo not shown) [III-172] | > 20% |  | 1.5 µg/mL (≈ 4.2 µM) | > 60% |  |  |  |
| Cc1cc(C)n2ccc(C(=O)Nc3ccc(-n4ccnc4)cc3)c2n1 [III-86] | < 10% |  | 0.3 µg/mL (≈ 0.905 µM) | < 30% |  |  |  |
| Cc1cc(C)n2ccc(C(=O)N[C@H]3CC[C@H](OC4CC4)CC3)c2n1 [III-286] | 10 to 20% |  |  | > 60% | 8.8 µg/mL (≈ 26.9 µM) |  |  |
| COCCOc1ccc2c(c1)C(NC(=O)c1ccn3c(C)cc(C)nc13)CC2 (stereo not shown) [III-103] | 10 to 20% |  | 11.8 µg/mL (≈ 31.1 µM) | > 60% |  |  |  |
| CCCCCO[C@H]1CC[C@H](NC(=O)c2ccn3c(C)cc(C)nc23)CC1 [III-201] | > 20% |  | 0.5 µg/mL (≈ 1.4 µM) | > 60% |  |  |  |
| Cc1cc(C)n2ccc(C(=O)N[C@H]3CC[C@H](OCC(C)C)CC3)c2n1 [III-288] | > 20% |  |  | > 60% | 8.7 µg/mL (≈ 25.3 µM) |  |  |
| Cc1cc(C)n2ccc(C(=O)NC3CCC4(CCCO4)C3)c2n1 (stereo not shown) [III-147] |  | + (less than 30% Gcase activation) |  |  |  | * (less than 10% Gcase activation) | 20.4 µg/mL |
| Cc1cc(C)n2ccc(C(=O)N[C@@H]3CCc4ccccc43)c2n1 [III-218] | > 20% |  |  | > 60% | 0.2 µg/mL (≈ 0.655 µM) |  |  |
| Cc1cc(C)n2ccc(C(=O)N[C@H]3CC[C@H](OC(C)C)CC3)c2n1 [III-106] | 10 to 20% |  | 10.4 µg/mL (≈ 31.6 µM) | > 60% |  |  |  |
| COc1cc(NC(=O)c2ccn3c(C)cc(C)nc23)ccc1-c1cocn1 [III-108] | > 20% |  | 0.2 µg/mL (≈ 0.552 µM) | > 60% |  |  |  |
| Cc1cc(C)n2ccc(C(=O)NC3CCOc4c(F)ccc(F)c43)c2n1 (stereo not shown) [III-171] | > 20% |  | 1.7 µg/mL (≈ 4.76 µM) | > 60% |  |  |  |
| [2H]C1(NC(=O)c2ccn3c(C(C)C)cc(COC)nc23)CCOc2cc(F)c(F)cc21 (stereo not shown) [III-60] | < 10% |  | 2.4 µg/mL (≈ 5.76 µM) | 30 to 60% |  |  |  |
| COCc1cc(COC)n2ccc(C(=O)NC3(C)CCOc4cc(F)c(F)cc43)c2n1 (stereo not shown) [III-155] | 10 to 20% |  | 2.1 µg/mL (≈ 4.87 µM) | > 60% |  |  |  |
| Cc1cc(C)n2ccc(C(=O)Nc3ccc4c(c3)CCC4)c2n1 [III-148] | > 20% |  | 0.06 µg/mL (≈ 0.196 µM) | > 60% |  |  |  |
| Cc1cc(C)n2ccc(C(=O)NC3CCCCC34CCCCO4)c2n1 (stereo not shown) [III-152] | 10 to 20% |  | 6.7 µg/mL (≈ 19.6 µM) | > 60% |  |  |  |
| Cc1cc(C)n2ccc(C(=O)Nc3ccc(-c4ccco4)cc3)c2n1 [III-276] |  | +++ (Gcase activation greater than 60%) |  |  | < 0.1 µg/mL | *** (greater than 20% Gcase activation) |  |
| Cc1ccnc2c(C(=O)NC3(C)CCOc4ccc(F)cc43)ccn12 (stereo not shown) [III-264] | 10 to 20% |  |  | > 60% | 12.5 µg/mL (≈ 36.8 µM) |  |  |
| Cc1cc(C)n2ccc(C(=O)NC3(C)CCOc4c(F)cccc43)c2n1 (stereo not shown) [III-133] | > 20% |  | 1.9 µg/mL (≈ 5.38 µM) | > 60% |  |  |  |
